Experimental data: the NIST ThermoML archive (doi:10.1021/je800586u)

Details: Crystal

C1CSCCS1 [1,4-dithiacyclohexane]
vapor or sublimation pressure [kPa]
Details	296.65 K	355.75 K	359.45 K	362.35 K	367.35 K	370.65 K	374.05 K	374.25 K	376.95 K
Rate of evaporation	–	1.067	1.333	1.893	2.653	3.246	3.826	3.906	4.626
Transpiration method	0.00918	–	–	–	–	–	–	–	–
